The text below walks through data of EPA's ToxValDB 9.5.

Where only a bound is given, the exact number is not on record here.

Series [1] deals with Rattus norvegicus. Particulars: chronic, oral.
The test system of series [2] is Rattus norvegicus. Particulars: repeat dose other; oral.
The subject of series [3] is Rattus norvegicus. As to conditions: oral, M/F.
Series [4] concerns Rattus norvegicus.
For series [5], the system named is Mus musculus. Particulars: M/F.
Series [6] concerns Rattus norvegicus. Particulars: oral.
The subject of series [7] is Rattus norvegicus. As to conditions: oral. This is another data set of the same source.
The test system of series [8] is Rattus norvegicus. Particulars: subchronic, oral, gavage.
Series [9] has as its system Mus musculus. Particulars: oral, gavage, B6C3F1.
The subject of series [10] is Rattus norvegicus. As to conditions: oral. This is another data set of the same source.
[11] abbreviates: subchronic, reduced mean terminal body weight (males).
Where [12] appears, read: chronic, body weight depression.

For the molecule `[Cr+6]` [Chromium (VI) ion], the NOAEL was determined as 2.4 mg/kg-day in the series on Rattus norvegicus [1] (duration: 1 years, drinking water, None Observed); 3.28 mg/kg-day in the series on Rattus norvegicus [2]; 25 mg/L in the series with Rattus norvegicus [3] (chronic, duration: 1 years, drinking water, no effects). In the series with Rattus norvegicus [2], this molecule showed an LOAEL of 13.1 mg/kg-day.
As for `c1ccc2ccccc2c1` [Naphthalene], the lowest observed adverse effect level (LOAEL) was determined as 52.4 mg/m3 in the series with Rattus norvegicus [4] (chronic, duration: 105 weeks, inhalation, M/F, Fischer 344, respiratory); 50 mg/kg-day in the series on Rattus norvegicus [4] (reproduction developmental, duration: 9 days, oral, gavage, F, Sprague-Dawley, neurological); 52.4 mg/m3 in the series on Mus musculus [5] (chronic, inhalation, nasal effects: hyperplasia and metaplasia in respiratory and olfactory epithelium, respectively); 200 mg/kg-day in the series on Rattus norvegicus [3] (setting [11]). In the series with Rattus norvegicus [3] (setting [11]), this molecule had a no-observed-adverse-effect level (NOAEL) of 100 mg/kg-day.
Turning to `[Ni]` [Nickel], the NOAEL in the series with Rattus norvegicus [1] (duration: 2 years, diet, Organs, major: Decreased organ weight + Whole body: Decreased body weight) was determined as 7.8 mg/kg-day; in the series on Rattus norvegicus [4] (chronic, duration: 2 years, inhalation, M/F, Fischer 344, respiratory), 0.03 mg/m3; in the series with Rattus norvegicus [4] (subchronic, duration: 13 weeks, inhalation, M/F, Fischer 344, respiratory), 0.06 mg/m3.
On to `OCC(O)CCl` (configuration not stated) [3-Chloro-1,2-propanediol], for which the LOEL in the series with Rattus norvegicus [6] (chronic, drinking water, Fischer 344, Kidney proximule tubule hyperplasia) came out at 1.1 mg/kg-day.
For `[Ba+2].[Cl-].[Cl-]` [Barium chloride], in the series with Rattus norvegicus [2], the NOAEL amounted to 5.1 mg/kg-day.
With `O=C(c1ccc(Cl)cc1)c1ccc(Cl)cc1` [4,4'-Dichlorobenzophenone], the NOAEL with Rattus norvegicus [7] (subchronic, duration: 90 days, diet, M, Wistar) amounted to 86 mg/kg-day.
`CC[n+]1c(-c2ccccc2)c2cc(N=NNc3cccc(C(=N)N)c3)ccc2c2ccc(N)cc21` [Isometamidium]: the NOAEL with Rattus norvegicus [6] (subchronic, duration: 13 weeks, gavage, M/F, Crl:CD(SD) BR) was 50 mg/kg-day.
Take `CN(C)c1ccccc1` [N,N-Dimethylaniline]: the NOEL in the series on Rattus norvegicus [8] (duration: 13 weeks, M/F, Fischer 344, Body Weight Changes: decrease + Histopathology: Spleen-Hematopoiesis, extramedullary Spleen-Hemosiderosis Kidney-Pigmentation Liver-…) was below 31 mg/kg-day; with Rattus norvegicus [8] (M, Sprague-Dawley, Clinical Observation: Dark-red discoloration of skin R + Functional Observational Battery: Dark-red discoloration of skin R + Hematology: …), 1 mg/kg-day. Moreover, the LOAEL in the series on Mus musculus [9] (short-term, duration: 15 days) is 188 mg/kg-day; with Mus musculus [9] (subchronic, duration: 13 weeks), 62.5 mg/kg-day; in the series with Mus musculus [5] (subchronic, oral, gavage, splenomegaly, increased splenic hemosiderosis and hematopoiesis), 31.2 mg/kg-day. Also, the NOAEL with Mus musculus [9] (short-term, duration: 15 days) was found to be 93.8 mg/kg-day; in the series on Mus musculus [9] (subchronic, duration: 13 weeks), 31.2 mg/kg-day; with Rattus norvegicus [10] (short-term, duration: 14 days, gavage, Fischer 344), 93.8 mg/kg-day; with Rattus norvegicus [10] (subchronic, duration: 13 weeks, gavage, Fischer 344), 31.2 mg/kg-day.
Regarding `O=C1[O][Sb-]23[O]C(=O)C([O]2)C2[O][Sb-]4([O]C(=O)C([O]4)C1[O]3)[O]C2=O.[K+].[K+]`, the LOAEL with Rattus norvegicus [7] (chronic, duration: 2 years, drinking water, M/F, Long-Evans, Whole Body Effects) stood at 0.35 mg/kg-day.
In the case of `CC(O)CO` (configuration not stated) [1,2-Propylene glycol], the LOAEL in the series on Rattus norvegicus [7] (subchronic, duration: 5 weeks, drinking water, M, Wistar, Hematologic) turned out to be 5200 mg/kg-day; in the series with Rattus norvegicus [4] (subchronic, duration: 13 weeks, inhalation, nose only, M/F, Sprague-Dawley, respiratory) it was 159 mg/m3.
In the series on Rattus norvegicus [7] (subchronic, duration: 13 weeks, diet, M, Fischer 344), `Cc1ccccc1N` [2-Methylaniline] showed an LOAEL of 301 mg/kg-day.
On to `O=C(NC(=O)c1c(F)cccc1F)Nc1cc(Cl)c(OC(F)(F)C(F)C(F)(F)F)cc1Cl` (configuration not stated) [Lufenuron], for which, in the series with Rattus norvegicus [6] (chronic, duration: 2 years, Tonic-clonic seizures, histopathological effects on lungs, liver, non-glandular stomach, intestines and urinary tract.), the NOAEL amounted to 1.93 mg/kg-day.
Molecule `ClCCOCOCCCl` [Bis(2-chloroethoxy)methane] showed an NOAEL in the series with Rattus norvegicus [7] (subchronic, duration: 90 days, gavage, M/F, Sprague-Dawley, hepatic) of 10 mg/kg-day.
Regarding `COC(=O)c1ccccc1C(=O)OC` [Dimethyl phthalate], the LOAEL in the series with Rattus norvegicus [7] (short-term, duration: 1 weeks, diet, M, Wistar) came to 302 mg/kg-day. This molecule gave an LD50 in the series with Rattus norvegicus [10] (acute) of 6900 mg/kg. For the same molecule, the NOAEL with Rattus norvegicus [10] (developmental, duration: 10 days, diet, Sprague-Dawley) is above 3570 mg/kg-day; in the series on Rattus norvegicus [10] (reproduction developmental, duration: 10 days, diet, F, Sprague-Dawley), 840 mg/kg-day.
As for `O=C1CCCCC1` [Cyclohexanone], the NOAEL with Rattus norvegicus [7] (chronic, duration: 25 weeks, drinking water, M, Fischer 344, Whole Body Effects) was determined as 731 mg/kg-day; in the series with Rattus norvegicus [3] (setting [12]), 462 mg/kg-day. The LOAEL with Rattus norvegicus [3] (setting [12]) was 910 mg/kg-day.
Regarding `C[C@@H]1C[C@H]2[C@@H]3CCC4=CC(=O)C=C[C@]4(C)[C@@]3(F)[C@@H](O)C[C@]2(C)[C@@]1(O)C(=O)CO` [Dexamethasone], the NOEL with Rattus norvegicus [6] (short-term, gavage, Induction of hepatic tyrosine aminotransferase activity) was 0.0015 mg/kg-day.
In the series with Rattus norvegicus [2], `Clc1cc2c(oc3cc(Cl)c(Cl)c(Cl)c32)c(Cl)c1Cl` [1,2,3,6,7,8-Hexachlorodibenzofuran] yielded an LOAEL of 0.0016 mg/kg-day and an NOAEL of 0.00016 mg/kg-day.
As for `CCOC(=O)C(C)OC(=O)c1cc(Oc2ccc(C(F)(F)F)cc2Cl)ccc1[N+](=O)[O-]` (configuration not stated) [Lactofen], the LEL in the series with Mus musculus [5] (chronic, duration: 78 weeks, oral, hepatocytomegaly in males + Increased absolute and relative liver weight) amounted to 1.5 mg/kg-day.
